Drawing on ChEMBL document CHEMBL4396896, “N-Aminoacyl and N-hydroxyacyl derivatives of diosgenyl 2-amino-2-deoxy-β-d-glucopyranoside: Synthesis, antimicrobial and hemolytic activities” (Bioorg Med Chem, 2019), this text covers MIC, Activity and hemolysis for seven molecules.

The test system of data set [1] is Candida albicans. The data set can be described thus: Antifungal activity against Candida albicans ATCC 10231 incubated in sabouraud liquid medium under aerobic condition for 48 hrs using initial inoculum of 10^3 CFU/ml by serial dilution method. Particulars: ATCC 10231, 48 h. The class given is functional.
For data set [2], the system named is Yarrowia lipolytica. Briefly: Antifungal activity against Candida lipolytica PCM 2680 incubated in sabouraud liquid medium under aerobic condition for 48 hrs using initial inoculum of 10^3 CFU/ml by serial dilution method. In kind it is functional. Particulars: PCM 2680, 48 h.
For data set [3], the system named is Bacillus subtilis. The data set can be described thus: Antibacterial activity against Bacillus subtilis ATCC 6633 incubated in MHB II under aerobic condition for 18 hrs using initial inoculum of 5 x 10^5 CFU/ml by serial dilution method. The class given is functional. The conditions noted are these: ATCC 6633, 18 h.
Data set [4] relates to Enterococcus faecalis. The data set can be described thus: Antibacterial activity against Enterococcus faecalis ATCC 29212 incubated in MHB II under aerobic condition for 18 hrs using initial inoculum of 5 x 10^5 CFU/ml by serial dilution method. In kind it is functional. Particulars: ATCC 29212, 18 h.
Data set [5] concerns Staphylococcus aureus. The data set can be described thus: Antibacterial activity against Staphylococcus aureus ATCC 25923 incubated in MHB II under aerobic condition for 18 hrs using initial inoculum of 5 x 10^5 CFU/ml by serial dilution method. In kind it is functional. Particulars: ATCC 25923, 18 h.
The test system of data set [6] is Staphylococcus epidermidis. The data set can be described thus: Antibacterial activity against Staphylococcus epidermidis PCM 2118 incubated in MHB II under aerobic condition for 18 hrs using initial inoculum of 5 x 10^5 CFU/ml by serial dilution method. The class given is functional. The conditions noted are these: PCM 2118, 18 h.
The subject of data set [7] is Erythrocyte. Briefly: Haemolytic activity in human erythrocytes assessed as haemolytic index by measuring hemoglobin release at 0.5 to 128 mg/L incubated for 1 hr by microplate spectrophotometry relative to control. Particulars: erythrocyte, 1 h. The class given is ADME, cell-based.
Data set [8] concerns Escherichia coli. Briefly: Antibacterial activity against Escherichia coli ATCC 25922 incubated in MHB II under aerobic condition for 18 hrs using initial inoculum of 5 x 10^5 CFU/ml by serial dilution method. The class given is functional. Particulars: ATCC 25922, 18 h.
Data set [9] relates to Klebsiella pneumoniae. Briefly: Antibacterial activity against Klebsiella pneumoniae ATCC 700603 incubated in MHB II under aerobic condition for 18 hrs using initial inoculum of 5 x 10^5 CFU/ml by serial dilution method. Particulars: ATCC 700603, 18 h. In kind it is functional.
For data set [10], the system named is Proteus mirabilis. The data set can be described thus: Antibacterial activity against Proteus mirabilis PCM 543 incubated in MHB II under aerobic condition for 18 hrs using initial inoculum of 5 x 10^5 CFU/ml by serial dilution method. In kind it is functional. Particulars: PCM 543, 18 h.
Data set [11] deals with Pseudomonas aeruginosa. Briefly: Antibacterial activity against Pseudomonas aeruginosa ATCC 9027 incubated in MHB II under aerobic condition for 18 hrs using initial inoculum of 5 x 10^5 CFU/ml by serial dilution method. The class given is functional. The conditions noted are these: ATCC 9027, 18 h.
The nature of data set [12]: Haemolytic activity in human erythrocytes assessed as haemolytic index by measuring hemoglobin release at 128 mg/L incubated for 1 hr by microplate spectrophotometry. In kind it is ADME, cell-based, Erythrocyte. Particulars: read-out: HI.
The nature of data set [13]: Haemolytic activity in human erythrocytes assessed as haemolytic index by measuring hemoglobin release at 64 mg/L incubated for 1 hr by microplate spectrophotometry. In kind it is ADME, cell-based, Erythrocyte. Particulars: read-out: HI.
Data set [14] in a line: Haemolytic activity in human erythrocytes assessed as haemolytic index by measuring hemoglobin release at 32 mg/L incubated for 1 hr by microplate spectrophotometry. The class given is ADME, cell-based, Erythrocyte. Particulars: read-out: HI.
For data set [15], the system named is Erythrocyte. The data set can be described thus: Haemolytic activity in human erythrocytes assessed as hemoglobin release at 8 to 64 mg/L incubated for 1 hr by microplate spectrophotometry. In kind it is ADME, cell-based.
Data set [16] relates to Candida albicans. The data set can be described thus: […] activity against Candida albicans ATCC 10231 by antimicrobial susceptibility based testing method. The class given is functional.
In data set [17] the test system is Enterococcus faecalis. Briefly: microbe, parasite or virus in culture. The conditions noted are these: ATCC 29212.
Description: Antibacterial activity against Enterococcus faecalis ATCC 29212 by antimicrobial susceptibility based testing method

Converted amounts (≈) assume the structure as drawn.

`C[C@@H]1CC[C@@]2(OC1)O[C@H]1C[C@H]3[C@@H]4CC=C5C[C@@H](O[C@@H]6O[C@H](CO)[C@@H](O)[C@H](O)[C@H]6N)CC[C@]5(C)[C@H]4CC[C@]3(C)[C@H]1[C@@H]2C.Cl`: the MIC was found to be 2 µg/mL in [1]; 1 µg/mL in [2]; 8 µg/mL in data set [3]; 16 µg/mL in [4]; 16 µg/mL in data set [5]; 16 µg/mL in data set [6]. For the same molecule, in data set [7], the Activity result is recorded as “Non-Toxic”.

With `C[C@@H]1CC[C@@]2(OC1)O[C@H]1C[C@H]3[C@@H]4CC=C5C[C@@H](O[C@@H]6O[C@H](CO)[C@@H](O)[C@H](O)[C@H]6NC(=O)[C@@H]6CCCN6)CC[C@]5(C)[C@H]4CC[C@]3(C)[C@H]1[C@@H]2C`, the MIC is 8 µg/mL (≈ 11.9 µM) in [3]; 4 µg/mL (≈ 5.94 µM) in data set [4]; 4 µg/mL (≈ 5.94 µM) in [5]; 4 µg/mL (≈ 5.94 µM) in data set [6]; above 128 µg/mL in data set [8]; above 128 µg/mL in [9]. For the same molecule, the MIC in [10] and in data set [11] was above 128 µg/mL in each case. For the same molecule, the hemolysis at 1 h, 128 mg/L in data set [12] stood at 100%. Moreover, in data set [13], the hemolysis at 1 h, 64 mg/L is 100%. Further, the hemolysis at 1 h, 32 mg/L in data set [14] worked out at 46%.

In the case of `C[C@@H]1CC[C@@]2(OC1)O[C@H]1C[C@H]3[C@@H]4CC=C5C[C@@H](O[C@@H]6O[C@H](CO)[C@@H](O)[C@H](O)[C@H]6NC(=O)[C@H](C)NC(=O)[C@H](C)N)CC[C@]5(C)[C@H]4CC[C@]3(C)[C@H]1[C@@H]2C`, the MIC was 64 µg/mL (≈ 89.1 µM) in [1]; 32 µg/mL (≈ 44.6 µM) in data set [2]; 64 µg/mL (≈ 89.1 µM) in data set [3]; above 128 µg/mL in [4]; 128 µg/mL (≈ 178 µM) in data set [5]; 128 µg/mL (≈ 178 µM) in [6]. Besides, the MIC in data set [8], in data set [9], in data set [10] and in data set [11] was above 128 µg/mL throughout. For the same molecule, in data set [12], the hemolysis at 1 h, 128 mg/L worked out at 74%. For the same molecule, the hemolysis at 1 h, 64 mg/L in data set [13] was found to be 57%.

With `C[C@@H]1CC[C@@]2(OC1)O[C@H]1C[C@H]3[C@@H]4CC=C5C[C@@H](O[C@@H]6O[C@H](CO)[C@@H](O)[C@H](O)[C@H]6NC(=O)CN)CC[C@]5(C)[C@H]4CC[C@]3(C)[C@H]1[C@@H]2C`, the MIC in data set [1], in data set [2], in data set [3], in [4], in data set [5] and in data set [6] was 64 µg/mL (≈ 101 µM) each time. Moreover, the MIC in data set [8], in data set [9], in data set [10] and in [11] was above 128 µg/mL throughout. For the same molecule, the Activity entry in data set [15] was “Toxic”. In data set [12], the hemolysis at 1 h, 128 mg/L was 16%.

As for `C[C@@H]1CC[C@@]2(OC1)O[C@H]1C[C@H]3[C@@H]4CC=C5C[C@@H](O[C@@H]6O[C@H](CO)[C@@H](O)[C@H](O)[C@H]6NC(=O)[C@@H](O)CO)CC[C@]5(C)[C@H]4CC[C@]3(C)[C@H]1[C@@H]2C`, the MIC in data set [1] is 16 µg/mL (≈ 24.1 µM); in data set [2] it was 2 µg/mL (≈ 3.01 µM); in data set [3] it was above 128 µg/mL; in data set [4] it was above 128 µg/mL; in data set [5], above 128 µg/mL; in data set [6], above 128 µg/mL. In addition, the MIC in data set [8], in data set [9], in data set [10] and in data set [11] was above 128 µg/mL in each case. Besides, in data set [12], the hemolysis at 1 h, 128 mg/L was found to be 56%. In addition, the hemolysis at 1 h, 64 mg/L in data set [13] was 27%.

In the case of `C[C@@H]1[C@H](O)[C@@H](C)/C=C/C=C/C=C/C=C/C=C/C=C/C=C/[C@H](O[C@@H]2O[C@H](C)[C@@H](O)[C@H](N)[C@@H]2O)C[C@@H]2O[C@](O)(C[C@@H](O)C[C@@H](O)[C@H](O)CC[C@@H](O)C[C@@H](O)CC(=O)O[C@H]1C)C[C@H](O)[C@H]2C(=O)O` [AMPHOTERICIN B], in data set [16], the MIC is 0.5 µg/mL (≈ 0.541 µM).

`CN[C@H](CC(C)C)C(=O)N[C@H]1C(=O)N[C@@H](CC(N)=O)C(=O)N[C@H]2C(=O)N[C@H]3C(=O)N[C@H](C(=O)N[C@H](C(=O)O)c4cc(O)cc(O)c4-c4cc3ccc4O)[C@H](O)c3ccc(c(Cl)c3)Oc3cc2cc(c3O[C@@H]2O[C@H](CO)[C@@H](O)[C@H](O)[C@H]2O[C@H]2C[C@](C)(N)[C@H](O)[C@H](C)O2)Oc2ccc(cc2Cl)[C@H]1O` [VANCOMYCIN]: the MIC in [17] was 2 µg/mL (≈ 1.38 µM).
